Reference: patent publication US20250352588A1, “EFFECT OF A PROBIOTIC COMPOSITION ON VAGINAL LACTOBACILLUS SPECIES” (INTERNATIONAL N&H DENMARK APS, priority 2021, published 2025)

Assays:
[1] = system: Lactobacillus crispatus 13331; experiment: Growth experiments with probiotic supernatant and biogenic amines (OD600, 44 h); format: cell-based; details: highest physiological concentration (cadaverine 4990 μM, putrescine 3179 μM); putrescine effect from 0.5 h to end of experiment
Method: The growth experiment was performed as described above but with some modifications. The Lactobacillus crispatus strain was cultured in SVF media (control), and in the SVF media containing one of the biogenic amines, and in the SVF media containing one of the biogenic amines and probiotic supernatant. The effect of all five biogenic amines was investigated independently on the pure culture of Lactobacillus crispatus 13331. Each test condition was investigated in triplicates in the honey-comb plate. […] The growth study was performed in SVF pH 4.5 using Bioscreen© C system measuring the optical density at 600 nm every 30 min for 44 h at 37° C. […] Growth experiments were performed in three independent biological replicates.

L. crispatus strains = details: Borgogna et al., 2021; cited from earlier work

| Compound | growth in the presence of biogenic amine alone vs strain alone (control) [1] | effect on growth of L. crispatus strains (L. crispatus strains) |
| --- | --- | --- |
| NCCCCCN [cadaverine] | no statistically significant difference in growth | – |
| NCCCCN [putrescine] | significant reduction in the growth | negatively affect the growth |
